Columns and labels:
[1] = test system: radiation-induced mucositis mouse model; test: Radiation-induced mucositis mouse model: viability, body weight, intestinal functions; type: in vivo, C57BL/6(H-2k) mice; conditions: 1100 cGy radiation, compared to group not treated
Experimental: NecroX-7 ((tetrahydropyran-4-yl)-[2-phenyl-5-(1,1-dioxo-thiomorpholine-4-yl)methyl-1H-indole-7-yl]amine) was obtained from LG Life Sciences, Ltd. 7 week- to 9 week-old C57BL/6(H-2k) mice were used as an animal model, and irradiated with 1,100 cGy whole-body radiation to induce damage to the intestinal mucosa, thereby completing the establishment of a mucositis model. Effects of NecroX-7 administered on such a mucositis model were analyzed by comparison in terms of viability, body weight, and intestinal functions.
(A) C57BL/6(H-2k) mice were irradiated with strong radiation 1100 cGy (radiation source: X-ray Mevatron MXE-2) at a dose rate of 1 Gy/min to induce mucositis. NecroX-7 was administered five times at a dose of 0.3 mg/kg or 3 mg/kg or 30 mg/kg and the results were compared.
Induction of intestinal mucositis by radiation causes side effects such as intestinal hemorrhaging and fecal incontinence. Thus, in the present experiment, a mucositis model was established by irradiating high-dose radiation of 1100 cGy, and NecroX-7 was treated total five times and the NecroX-7 treated group was compared to a group not treated with NecroX-7. A protective effect of NecroX-7 with respect to radiation-induced intestinal mucositis was examined.

[2] = test system: intestinal tissue of radiation-induced mucositis mice; test: H&E staining of intestinal tissue, radiation-induced mucositis; type: in vivo; conditions: 30 mg/kg NecroX-7, FIG. 3
[3] = test system: intestinal tissue of radiation-induced mucositis mice; test: Cell proliferation (bromodeoxyuridine) by IHC staining of intestinal tissue; type: in vivo; conditions: 30 mg/kg NecroX-7, unlike a control, FIG. 4
Experimental: Cell proliferation (bromodeoxyuridine) was confirmed by IHC staining. Before obtaining mouse tissues, mice were each injected with […] of a BrDU labeling reagent (5-bromo-2′-deoxyuridine and 5-fluoro-2′-deoxyuridine) and intestinal tissue was extracted within 2 hours to prepare paraffin blocks. 4 μm continuous sections were obtained from paraffin-embedded tissue, treated with xylene three times to remove paraffin, and then rinsed stepwise in 95%, 90% and 70% ethanol. After removing endogenous peroxidase from 0.3% hydrogen peroxide, the sections were treated with goat serum for 30 minutes. A primary antibody was diluted in PBS containing 3% BSA according to the manufacturer's instructions and then maintained for 1 hour to induce a reaction therebetween. […] The cells were maintained in 3 μg/ml HRP streptoavidin for 30 minutes, developed color with DAB and hydrogen peroxide, and then were subjected to contrast staining with Mayer's hematoxylin or 1% methyl green.

tumor cells = test: MTT assay of irradiated tumor cells; type: cell-based; conditions: 800 cGy radiation; NecroX-7 according to doses; 3 days incubation; FIG. 5
Experimental: (§1) Mucositis is a general side effect caused by radiation or chemotherapy for tumor treatment. Thus, to confirm the efficacy of a mucositis therapeutic agent, an effect thereof on tumor proliferation should be evaluated. Normal cells and tumor cells were irradiated with 800 cGy radiation, treated with NecroX-7 according to doses, and inoculated on a 96-well plate, incubated at 37[…] and 5% CO2 for 3 days, and then cell proliferation was confirmed by MTT assay. After incubation for 3 days, an MTT solution was added thereto and a reaction was allowed to occur therein for 3 hours, and the absorbance thereof was measured at […].

normal cells = test: MTT assay of irradiated normal cells; type: cell-based; conditions: 800 cGy radiation; NecroX-7 according to doses; 3 days incubation; FIG. 5
Experimental: as §1

[4] = test system: intestinal epithelial cells (IEC-6); test: MTS assay of IEC-6 cell proliferation in normal environments; type: cell-based; conditions: no radiation, 5, 10, 20, 40 μM for 30 minutes, measured after 2 days
Experimental: To examine an effect of NecroX-7 on IEC-6 cell proliferation ability in normal environments, IEC-6 cells were treated with NecroX-7 at each concentration (5 μM, 10 μM, 20 μM, and 40 μM) for 30 minutes, the media were replaced and, after 2 days, the viability of the IEC-6 cells was measured by MTS (3-(4,5-dimethylthiazol-2-yl)-5-(3-carboxymethoxyphenyl)-2-(4-sulfophenyl)-2H-tetrazolium) assay.

[5] = test system: intestinal epithelial cells (IEC-6); test: MTS assay of IEC-6 cells after irradiation; type: cell-based; conditions: 20 μM and 40 μM NecroX-7 for 30 minutes; 2 days after radiation irradiation; FIG. 6
Experimental: To investigate an effect of NecroX-7 on cell proliferation ability after irradiation, the IEC-6 cells were treated with NecroX-7, for 30 minutes, according to concentration, the media were replaced, and then MTS assay was performed thereon 2 days after radiation irradiation.

[6] = test system: mitochondrial ROS in intestinal epithelial cells (IEC-6); test: Mitochondrial ROS by CM-H2ROS staining after radiation; type: cell-based; conditions: IEC-6 cells after radiation; FIG. 6
[7] = test system: anticancer drug-induced mucositis mouse model; test: Anticancer drug (5-FU)-induced mucositis mouse model: viability, body weight; type: in vivo, C57BL/6(H-2k) mice; conditions: 50 mg/kg 5-FU i.p. five times; NecroX-7 intravenously five times at 0.3, 3 or 30 mg/kg; compared to group not treated; FIG. 7
Experimental: 7 week- to 9 week-old C57BL/6(H-2k) mice were used as an animal model, and injected intraperitoneally with 50 mg/kg of 5-fluorouracil (5-FU) every day for 5 days to induce oral and intestinal mucosal damage, thereby completing the establishment of a mucositis model. Effects of NecroX-7 administered on such a mucositis model were analyzed by comparison in terms of viability, body weight, and intestinal functions.
To induce oral and intestinal mucositis, the C57BL/6(H-2k) mice were intraperitoneally injected with 50 mg/kg of 5-FU five times. NecroX-7 was administered intravenously five times at a dose of 0.3 mg/kg or 3 mg/kg or 30 mg/kg and the results were compared.

[8] = test system: tongue and intestinal tissues of anticancer drug-induced mucositis mice; test: H&E staining of tongue and intestinal tissues, 5-FU-induced mucositis; type: in vivo
Human tumor cells = test: MTS viability of human tumor cells, NecroX-7 with or without 5-FU; type: cell-based; conditions: 5, 10, 20, 40 μM for 30 minutes; media without 5-FU; after 3 days; FIG. 10
Experimental: Human tumor cells were treated with NecroX-7 at each concentration ((5 μM, 10 μM, 20 μM, and 40 μM) for 30 minutes, the media were replaced by media with or without 5-FU, which is a chemotherapeutic agent, the cells were loaded on a 96-well plate and, after 3 days, the viability of the cells was measured by MTS assay.

[9] = test system: necrocytosis caused by oxidative stress and acetaminophen; conditions: reported, Park et al. 2013; cited from earlier work
[10] = test system: liver injury caused by carbon tetrachloride; conditions: mouse model; reported, Park et al. 2013; cited from earlier work
[11] = test system: liver injury due to ischemic reperfusion; conditions: reported, Park et al. 2013; cited from earlier work
[12] = NecroX-7 five times at 0.3, 3 or 30 mg/kg, FIG. 1

O=S1(=O)CCN(Cc2cc(NC3CCOCC3)c3[nH]c(-c4ccccc4)cc3c2)CC1 [NecroX-7, (tetrahydropyran-4-yl)-[2-phenyl-5-(1,1-dioxo-thiomorpholine-4-yl)methyl-1H-indole-7-yl]amine]
body weight loss [1, 12]: inhibited body weight loss | viability [1, 12]: increased viability | intestinal function protection (length of the intestines, stool production) ([1]; NecroX-7 total five times, FIG. 2): protected, similar to the intestines of a normal group | H&E histology of intestinal tissue (villi and mucosal destruction) [2]: aspects similar to normal intestinal tissue | cell proliferation (bromodeoxyuridine) in intestinal tissue [3]: vigorous cell proliferation was observed | proliferation of tumor cells (MTT) (tumor cells): suppressed or decreased in most cancer cell lines | radiation-induced cell death in normal cells (MTT) (normal cells): radiation-induced cell death was prevented | effect on IEC-6 cell proliferation (MTS viability) [4]: nearly no effect on cell proliferation | number of live IEC-6 cells (MTS) [5]: significantly increased | mitochondrial ROS (CM-H2ROS staining) [6]: significantly suppressed mitochondrial ROS increased by radiation | body weight loss [7]: suppressed body weight loss | viability [7]: increased viability | H&E histology of tongue and oral mucosa (epidermal atrophy, infiltration of inflammatory and necrotic cells) ([8]; 30 mg/kg of NecroX-7, FIG. 8): aspects similar to normal tissues | H&E histology of intestinal tissue (villi and mucosal destruction) ([8]; NecroX-7-treated group, FIG. 9): aspects similar to normal tongue and intestinal tissues | viability of human tumor cells (MTS), NecroX-7 alone (Human tumor cells): anticancer effect in a concentration-dependent manner | protection against necrocytosis caused by oxidative stress and acetaminophen [9]: protective effect against necrocytosis caused by oxidative stress and acetaminophen | prevention of liver injury caused by carbon tetrachloride [10]: effect of preventing liver injury caused by carbon tetrachloride in a mouse model | inhibition of liver injury due to ischemic reperfusion [11]: effectively inhibits liver injury due to ischemic reperfusion

From patent publication US10272092B2, “Composition for preventing or treating mucositis comprising NecroX as effective ingredient” (THE CATHOLIC UNIVERSITY OF KOREA INDUSTRY-ACADEMIC …, priority 2014, dated 2019)
